Legend:
[1] = biological target: recombinant human QC (Homo sapiens, UniProt Q16769); assay: Chemotactic potency of human MCP-1 in absence or presence of a QC-inhibitor (QC-mediated pGlu formation, then DP4 cleavage); format: biochemical; settings: 10 μM inhibitor, FIG. 12
Experimental: Recombinant human MCP-1(1-76) (SEQ ID NO: 1) starting with an N-terminal glutamine (Peprotech) was dissolved in 25 mM Tris/HCl pH 7.6 in a concentration of 10 μg/ml. The MCP-1 solution was either pre-incubated with recombinant human QC (0.0006 mg/ml) for 3 h at 30° C. and subsequently incubated with recombinant human DP4 (0.0012 mg/ml) at 30° C. or incubated with DP4 without prior QC application. In addition, the incubation of Gln^1-MCP-1 with recombinant human QC was carried out in the presence of 10 μM of 1-(3-(1H-imidazol-1-yl)propyl)-3-(3,4-dimethoxyphenyl)thiourea hydrochloride. Resulting DP4 cleavage products were analyzed using Maldi-TOF mass spectrometry after 0 min, 15 min, 30 min, 1 h, 2 h and 4 h.
The chemotaxis assay was performed using 24 well TransWell plates with a pore size of 5 μm (Corning). THP-1 cells were suspended in RPMI1640 in a concentration of 1*10^6 cells/100 μl and applied in 100 μl aliquots to the upper chamber. Cells were allowed to migrate towards the chemoattractant for 2 h at 37° C. […] Afterwards, cells migrated to the lower chamber were counted using a cell counter system (Schärfe System). The chemotactic index was calculated by dividing cells migrated to the stimulus from cells migrated to the negative control. […]

[2] = tested on: thioglycollate-induced peritonitis; assay: mMCP-1 N1pE/mMCP-1 ratio and monocyte infiltration in mice treated with thioglycollate and QCI; format: in vivo, mouse; settings: QCI intraperitoneal 30 minutes before thioglycollate
Experimental: To capture mouse MCP-1, commercially available polyclonal antiserum rabbit anti mJE (Peprotech, Hamburg, Germany) as capture antibody which specifically binds mouse MCP-1 was diluted in PBS to 500 ng/ml and immobilized in polystyrene 96-well microtitre plates over 4-7 nights at 4° C. Thereafter, blocking occurred for 2 hours at room temperature with ELISA Blocker (Thermo Fisher Scientific, Waltham, USA). For preparation of the standard curve recombinant mMCP-1 was incubated with mouse Glutaminyl Cyclase (QC) in order to obtain mMCP-1 N1pE. The recombinant mMCP-1 N1pE standard peptide was serially diluted with ELISA Blocker from 1950 pg/ml down to 19.5 pg/ml and added to the wells in duplicate. Two wells filled with ELISA Blocker represent the standard curve value 0 pg/ml. After an incubation period of 2 hours at room temperature, plates were washed at least three times with TBS-T. For detection of mMCP-1 N1pE, the MCP-1 N1pE antibody clone 348-2C9 together with HRP-conjugated anti mouse antibody were both diluted in ELISA Blocker to final concentrations of 500 ng/ml. […] Absorption at 450/540 nm was determined by a Tecan Sunrise plate reader. […]
Thioglycollate was injected intraperitoneal in mice. […] Infiltrated monocytes were counted by FACS analysis via double staining of 7/4 and Ly6G antigens.

Sequence of recombinant human QC (Q16769 29-361): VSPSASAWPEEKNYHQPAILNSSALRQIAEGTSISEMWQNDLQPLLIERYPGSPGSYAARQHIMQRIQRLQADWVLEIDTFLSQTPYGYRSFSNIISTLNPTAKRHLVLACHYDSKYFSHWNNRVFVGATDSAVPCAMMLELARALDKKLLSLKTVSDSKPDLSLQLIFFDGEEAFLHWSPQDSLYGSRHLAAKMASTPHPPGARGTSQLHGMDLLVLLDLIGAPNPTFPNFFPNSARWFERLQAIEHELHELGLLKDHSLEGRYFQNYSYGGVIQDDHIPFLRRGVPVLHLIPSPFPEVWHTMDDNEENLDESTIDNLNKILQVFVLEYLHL

`COc1ccc(NC(=S)NCCCn2ccnc2)cc1OC.Cl` [QCI, 1-(3-(1H-imidazol-1-yl)propyl)-3-(3,4-dimethoxyphenyl)thiourea hydrochloride] was tested, and the “pGlu-formation of Gln^1-MCP-1 by QC” value [1] was “prevents pGlu-formation”, the “number of infiltrating monocytes to the peritoneum” value ([2]; FACS, FIG. 23B) was “decreased number” and the “mMCP-1 N1pE/mMCP-1 ratio in peritoneal lavage fluid” value ([2]; lavage after 4 h) was “dose dependent reduction”.
